Reference: US5763404A, “Methods for using LHRH antagonists with low histamine release” (priority 1995, dated 1998)
Starred links: 1 amine or outer side, 2 acyl side, 3 side chain; linkers in the order of their positions; H or OH if unused. Non-standard residues stand in square brackets, D forms with d. Residues, ends and D or L forms follow the SMILES beside them. *: point of attachment. dAla(cis-4-NHCOPyz-cHex) = N[C@H](C[C@H]1CC[C@@H](NC(=O)c2cnccn2)CC1)C(=O)O; X8 = O=C(N[C@H]1CC[C@@H](C[C@@H](N[*:1])C(=O)[*:2])CC1)c1ccncn1; X2 = O=C(N[C@H]1CC[C@@H](C[C@H](N[*:1])C(=O)[*:2])CC1)c1cnccn1; dPhe(4-Cl) = N[C@H](Cc1ccc(Cl)cc1)C(=O)O; X10 = O=C([C@@H](Cc1cnccn1)N[*:1])[*:2]; d2Nal = N[C@H](Cc1ccc2ccccc2c1)C(=O)O; dLys(iPr) = CC(C)NCCCC[C@@H](N)C(=O)O; Lys(iPr) = CC(C)NCCCC[C@H](N)C(=O)O; Orn(iPr) = CC(C)NCCC[C@H](N)C(=O)O; Pyrazinecarbonyl = O=C(c1cnccn1)*; 3Pal = N[C@@H](Cc1cccnc1)C(=O)O; d3Pal = N[C@H](Cc1cccnc1)C(=O)O; Nicotinoyl = O=C(c1cccnc1)*; Picolinoyl = O=C(c1ccccn1)*; Orn = NCCC[C@H](N)C(=O)O; Nva = CCC[C@H](N)C(=O)O

tested on: anaesthesized rats; test: wheal test, intradermal injection; assay type: in vivo, rat; design: Wheal (wheal response): unit not given here; conditions: 10 ug peptide intradermally
Outline: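 Anaesthetized rats given intradermal injection of 10 ug peptide in 100 ul saline; area of the wheal calculated from its diameter.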

SMILES | Wheal Area [mm^2 /10 μg]
CC(=O)N[C@H](Cc1ccc2ccccc2c1)C(=O)N[C@H](Cc1ccc(Cl)cc1)C(=O)N[C@H](Cc1c[nH]c2ccccc12)C(=O)N[C@@H](CO)C(=O)N[C@@H](CCCCNC(=O)c1ccccn1)C(=O)N[C@H](CCCCNC(=O)c1ccccn1)C(=O)N[C@@H](CC(C)C)C(=O)N[C@@H](CCCCNC(C)C)C(=O)N1CCC[C@H]1C(=O)N[C@H](C)C(N)=O [compound 26177] (Ac-[d2Nal][dPhe(4-Cl)][dW]SK(Picolinoyl)[dK](Picolinoyl)L[Lys(iPr)]P[dA]-NH2) | 71.0 ± 4.3
CC(=O)N[C@H](Cc1ccc2ccccc2c1)C(=O)N[C@H](Cc1ccc(Cl)cc1)C(=O)N[C@H](Cc1cnccn1)C(=O)N[C@@H](CO)C(=O)N[C@@H](CCCCNC(=O)c1ccccn1)C(=O)N[C@H](CCCCNC(=O)c1ccccn1)C(=O)N[C@@H](CC(C)C)C(=O)N[C@@H](CCCNC(C)C)C(=O)N1CCC[C@H]1C(=O)N[C@H](C)C(N)=O [compound 26119] (Ac-[d2Nal][dPhe(4-Cl)][X10]SK(Picolinoyl)[dK](Picolinoyl)L[Orn(iPr)]P[dA]-NH2) | 103.9 ± 3.4
CC(=O)N[C@H](Cc1ccc2ccccc2c1)C(=O)N[C@H](Cc1ccc(Cl)cc1)C(=O)N[C@H](Cc1cccnc1)C(=O)N[C@@H](CO)C(=O)N[C@@H](CCCCNC(=O)c1ccccn1)C(=O)N[C@H](CCCCNC(=O)c1ccccn1)C(=O)N[C@@H](Cc1c[nH]c2ccccc12)C(=O)N[C@@H](CCCCNC(C)C)C(=O)N1CCC[C@H]1C(=O)N[C@H](C)C(N)=O [compound 25935] (Ac-[d2Nal][dPhe(4-Cl)][d3Pal]SK(Picolinoyl)[dK](Picolinoyl)W[Lys(iPr)]P[dA]-NH2) | 78.5 ± 0
CC(=O)N[C@H](Cc1ccc2ccccc2c1)C(=O)N[C@H](Cc1ccc(Cl)cc1)C(=O)N[C@H](Cc1cccnc1)C(=O)N[C@@H](CO)C(=O)N[C@@H](C[C@H]1CC[C@@H](NC(=O)c2cnccn2)CC1)C(=O)N[C@H](Cc1cnccn1)C(=O)N[C@@H](CC(C)C)C(=O)N[C@@H](CCCNC(=N)N)C(=O)N1CCC[C@H]1C(=O)N[C@H](C)C(N)=O [compound 26417] (Ac-[d2Nal][dPhe(4-Cl)][d3Pal]S[X2][X10]LRP[dA]-NH2) | 133.2 ± 11.8
CC(=O)N[C@H](Cc1ccc2ccccc2c1)C(=O)N[C@H](Cc1ccc(Cl)cc1)C(=O)N[C@H](Cc1cccnc1)C(=O)N[C@@H](CO)C(=O)N[C@@H](CCCCNC(=O)c1ccccn1)C(=O)N[C@H](C[C@H]1CC[C@@H](NC(=O)c2ccncn2)CC1)C(=O)N[C@@H](CC(C)C)C(=O)N[C@@H](CCCCNC(C)C)C(=O)N1CCC[C@H]1C(=O)N[C@H](C)C(N)=O [compound 26323] (Ac-[d2Nal][dPhe(4-Cl)][d3Pal]SK(Picolinoyl)[X8]L[Lys(iPr)]P[dA]-NH2) | 120.4 ± 4.7
CC(=O)N[C@H](Cc1ccc2ccccc2c1)C(=O)N[C@H](Cc1ccc(Cl)cc1)C(=O)N[C@H](Cc1cccnc1)C(=O)N[C@@H](CO)C(=O)N[C@@H](C[C@H]1CC[C@@H](NC(=O)c2cnccn2)CC1)C(=O)N[C@H](C[C@H]1CC[C@@H](NC(=O)c2cnccn2)CC1)C(=O)N[C@@H](CC(C)C)C(=O)N[C@@H](CCCCNC(C)C)C(=O)N1CCC[C@H]1C(=O)N[C@H](C)C(N)=O [compound 26326] (Ac-[d2Nal][dPhe(4-Cl)][d3Pal]S[X2][dAla(cis-4-NHCOPyz-cHex)]L[Lys(iPr)]P[dA]-NH2) | 115.5 ± 2.4
CCC[C@H](NC(=O)[C@@H](CCCCNC(=O)c1ccccn1)NC(=O)[C@H](CCCCNC(=O)c1ccccn1)NC(=O)[C@H](CO)NC(=O)[C@@H](Cc1cccnc1)NC(=O)[C@@H](Cc1ccc(Cl)cc1)NC(=O)[C@@H](Cc1ccc2ccccc2c1)NC(C)=O)C(=O)N[C@@H](CCCCNC(C)C)C(=O)N1CCC[C@H]1C(=O)N[C@H](C)C(N)=O [compound 25989] (Ac-[d2Nal][dPhe(4-Cl)][d3Pal]SK(Picolinoyl)[dK](Picolinoyl)[Nva][Lys(iPr)]P[dA]-NH2) | 95.3 ± 6.0
CCNC(=O)[C@@H]1CCCN1C(=O)[C@H](CCCCNC(C)C)NC(=O)[C@H](CC(C)C)NC(=O)[C@@H](C[C@H]1CC[C@@H](NC(=O)c2cnccn2)CC1)NC(=O)[C@H](CCCCNC(=O)c1ccccn1)NC(=O)[C@H](CO)NC(=O)[C@@H](Cc1cccnc1)NC(=O)[C@@H](Cc1ccc(Cl)cc1)NC(=O)[C@@H](Cc1ccc2ccccc2c1)NC(C)=O [compound 26383] (Ac-[d2Nal][dPhe(4-Cl)][d3Pal]SK(Picolinoyl)[dAla(cis-4-NHCOPyz-cHex)]L[Lys(iPr)]P-NHEt) | 119.6 ± 6.6

same assay, conditions: Table I; 10 ug peptide intradermally

SMILES | Wheal [mm^2 /10]
CC(=O)N[C@H](Cc1ccc2ccccc2c1)C(=O)N[C@H](Cc1ccc(Cl)cc1)C(=O)N[C@H](Cc1cccnc1)C(=O)N[C@@H](CO)C(=O)N[C@@H](CCCNC(=O)c1cccnc1)C(=O)N[C@H](CCCCNC(=O)c1cccnc1)C(=O)N[C@@H](CC(C)C)C(=O)N[C@@H](CCCNC(C)C)C(=O)N1CCC[C@H]1C(=O)N[C@H](C)C(N)=O [compound 25333] (Ac-[d2Nal][dPhe(4-Cl)][d3Pal]S[Orn](Nicotinoyl)[dK](Nicotinoyl)L[Orn(iPr)]P[dA]-NH2) | 113.6
CC(=O)N[C@H](Cc1ccc2ccccc2c1)C(=O)N[C@H](Cc1ccc(Cl)cc1)C(=O)N[C@H](Cc1cccnc1)C(=O)N[C@@H](CO)C(=O)N[C@@H](CCCCNC(=O)c1cccnc1)C(=O)N[C@H](CCCCNC(=O)c1cnccn1)C(=O)N[C@@H](CC(C)C)C(=O)N[C@@H](CCCCNC(C)C)C(=O)N1CCC[C@H]1C(=O)N[C@H](C)C(N)=O [compound 25649] (Ac-[d2Nal][dPhe(4-Cl)][d3Pal]SK(Nicotinoyl)[dK](Pyrazinecarbonyl)L[Lys(iPr)]P[dA]-NH2) | 122.2 ± 5.1
CC[C@H](C)[C@H](NC(=O)[C@H](CO)NC(=O)[C@@H](Cc1cccnc1)NC(=O)[C@@H](Cc1ccc(Cl)cc1)NC(=O)[C@@H](Cc1ccc2ccccc2c1)NC(C)=O)C(=O)N[C@H](CCCCNC(=O)c1cccnc1)C(=O)N[C@@H](CC(C)C)C(=O)N[C@@H](CCCNC(C)C)C(=O)N1CCC[C@H]1C(=O)N[C@H](C)C(N)=O [compound 25145] (Ac-[d2Nal][dPhe(4-Cl)][d3Pal]SI[dK](Nicotinoyl)L[Orn(iPr)]P[dA]-NH2) | 116.5
CC(=O)N[C@H](Cc1ccc2ccccc2c1)C(=O)N[C@H](Cc1ccc(Cl)cc1)C(=O)N[C@H](Cc1cccnc1)C(=O)N[C@@H](CO)C(=O)N[C@@H](CCCCNC(C)C)C(=O)N[C@H](CCCCNC(=O)c1cccnc1)C(=O)N[C@@H](CC(C)C)C(=O)N[C@@H](CCCCNC(C)C)C(=O)N1CCC[C@H]1C(=O)N[C@H](C)C(N)=O [compound 24543] (Ac-[d2Nal][dPhe(4-Cl)][d3Pal]S[Lys(iPr)][dK](Nicotinoyl)L[Lys(iPr)]P[dA]-NH2) | 132.7
CC(=O)N[C@H](Cc1ccc2ccccc2c1)C(=O)N[C@H](Cc1ccc(Cl)cc1)C(=O)N[C@H](Cc1cccnc1)C(=O)N[C@@H](CO)C(=O)N[C@@H](CCCCNC(C)C)C(=O)N[C@H](CCCCNC(=O)c1cccnc1)C(=O)N[C@@H](CC(C)C)C(=O)N[C@@H](CCCCNC(=O)c1cccnc1)C(=O)N1CCC[C@H]1C(=O)N[C@H](C)C(N)=O [compound 24746] (Ac-[d2Nal][dPhe(4-Cl)][d3Pal]S[Lys(iPr)][dK](Nicotinoyl)LK(Nicotinoyl)P[dA]-NH2) | 132.8 ± 5.9
CC(=O)N[C@H](Cc1ccc2ccccc2c1)C(=O)N[C@H](Cc1ccc(Cl)cc1)C(=O)N[C@H](Cc1cccnc1)C(=O)N[C@@H](CO)C(=O)N[C@@H](Cc1cccnc1)C(=O)N[C@H](CCCCNC(=O)c1cccnc1)C(=O)N[C@@H](CC(C)C)C(=O)N[C@@H](CCCNC(C)C)C(=O)N1CCC[C@H]1C(=O)N[C@H](C)C(N)=O [compound 25384] (Ac-[d2Nal][dPhe(4-Cl)][d3Pal]S[3Pal][dK](Nicotinoyl)L[Orn(iPr)]P[dA]-NH2) | 139.9
CC(=O)N[C@H](Cc1ccc2ccccc2c1)C(=O)N[C@H](Cc1ccc(Cl)cc1)C(=O)N[C@H](Cc1cccnc1)C(=O)N[C@@H](CO)C(=O)N[C@@H](CCCNC(=N)N)C(=O)N[C@H](CCCCNC(=O)c1cccnc1)C(=O)N[C@@H](CC(C)C)C(=O)N[C@@H](CCCCNC(C)C)C(=O)N1CCC[C@H]1C(=O)N[C@H](C)C(N)=O [compound 25335] (Ac-[d2Nal][dPhe(4-Cl)][d3Pal]SR[dK](Nicotinoyl)L[Lys(iPr)]P[dA]-NH2) | 196.9
CC(=O)N[C@H](Cc1ccc2ccccc2c1)C(=O)N[C@H](Cc1ccc(Cl)cc1)C(=O)N[C@H](Cc1cccnc1)C(=O)N[C@@H](CO)C(=O)N[C@@H](Cc1cccnc1)C(=O)N[C@H](CCCCNC(=O)c1cccnc1)C(=O)N[C@@H](CC(C)C)C(=O)N[C@@H](CCCCNC(C)C)C(=O)N1CCC[C@H]1C(=O)N[C@H](C)C(N)=O [compound 25383] (Ac-[d2Nal][dPhe(4-Cl)][d3Pal]S[3Pal][dK](Nicotinoyl)L[Lys(iPr)]P[dA]-NH2) | 132.8
CC(=O)N[C@H](Cc1ccc2ccccc2c1)C(=O)N[C@H](Cc1ccc(Cl)cc1)C(=O)N[C@H](Cc1cccnc1)C(=O)N[C@@H](CO)C(=O)N[C@@H](Cc1ccc(O)cc1)C(=O)N[C@H](CCCCNC(C)C)C(=O)N[C@@H](CC(C)C)C(=O)N[C@@H](CCCCNC(=O)c1cccnc1)C(=O)N1CCC[C@H]1C(=O)N[C@H](C)C(N)=O [compound 24824] (Ac-[d2Nal][dPhe(4-Cl)][d3Pal]SY[dLys(iPr)]LK(Nicotinoyl)P[dA]-NH2) | 122.8 ± 5.8

same assay, conditions: Table XIV and text, unit not given

SMILES | Wheal (wheal response)
CC(=O)N[C@H](Cc1ccc2ccccc2c1)C(=O)N[C@H](Cc1ccc(Cl)cc1)C(=O)N[C@H](Cc1cccnc1)C(=O)N[C@@H](CO)C(=O)N[C@@H](CCCCNC(=O)c1ccccn1)C(=O)N[C@H](C[C@H]1CC[C@@H](NC(=O)c2cnccn2)CC1)C(=O)N[C@@H](CC(C)C)C(=O)N[C@@H](CCCNC(C)C)C(=O)N1CCC[C@H]1C(=O)N[C@H](C)C(N)=O [compound 26181] (Ac-[d2Nal][dPhe(4-Cl)][d3Pal]SK(Picolinoyl)[dAla(cis-4-NHCOPyz-cHex)]L[Orn(iPr)]P[dA]-NH2) | 101.6 ± 2.2
CC(=O)N[C@H](Cc1ccc2ccccc2c1)C(=O)N[C@H](Cc1ccc(Cl)cc1)C(=O)N[C@H](Cc1cccnc1)C(=O)N[C@@H](CO)C(=O)N[C@@H](C[C@H]1CC[C@@H](NC(=O)c2cnccn2)CC1)C(=O)N[C@H](C[C@H]1CC[C@@H](NC(=O)c2cnccn2)CC1)C(=O)N[C@@H](CC(C)C)C(=O)N[C@@H](CCCCNC(C)C)C(=O)N1CCC[C@H]1C(=O)N[C@H](C)C(N)=O [compound 26326] (Ac-[d2Nal][dPhe(4-Cl)][d3Pal]S[X2][dAla(cis-4-NHCOPyz-cHex)]L[Lys(iPr)]P[dA]-NH2) | 115.5 ± 2.4
